Experimental findings from patent publication US12344584B2, “KCNQ potentiators” (Eli Lilly and Company, priority 2019, dated 2025) are described below.

The test system of test [1] is motor neurons derived from ALS patient iPSC line with pathogenic repeat expansion mutation in C9orf72. Put plainly: Optopatch excitability assay in motor neurons derived from ALS patient iPSC line (C9orf72 repeat expansion). Format: cell-based. Particulars: Homo sapiens, read-out: EC50, inhibition of excitability (action potential frequency). An excerpt: (§1) Optopatch Excitability Assay for Example 1 in Motor Neurons Derived From ALS Patient iPSC Lines
(§2) Altered excitability of cortical neurons and lower motor neuron is an important factor in the pathophysiology of ALS (See, for example, K. Kanai, et. al., J Neurol Neurosurg Psychiatry, 83, 734-738 (2012); P. Menon, et. al., Eur Neurol., 24, 816-824 (2017)). All-optical electrophysiology (“Optopatch”) was used to evaluate excitability in cultured motor neurons derived from iPSC lines from two ALS patients with different pathogenic mutations.
(§3) Cell Culture: The two iPSC lines are derived from one patient with a pathogenic mutation in TARDBP and one patient with a pathogenic repeat expansion mutation in C9orf72, respectively. Motor neurons are generated from these lines by a 2D differentiation method adapted from the dual SMAD inhibition neuronal patterning protocol (See S. M. Chambers, et. al., Nat Biotechnol., 27, 275-280 (2009)) by inclusion of motor neuron morphogens. Differentiation is verified by visual inspection, karyotyping and staining for beta-III-tubulin and the nuclear motor neuron marker ISL1. Neurons are cultured on a monolayer of mouse glia in mTeSR (Stem Cell Technologies), supplemented with 10 ng/mL BDNF. Forty-eight hours prior to imaging, 100 nM trans-retinal was added to the medium.
(§4) Transduction with Optopatch vectors: At 15 days in vitro, cultured motor neurons are transduced with a lentiviral vector to drive the co-expression of the actuator CheRiff-mOrange2 and the voltage indicator QuasAr3-Citrine (for details see D. R. Hochbaum, et. al., Nat. Methods, 11, 825-833 (2014)). Forty-eight hours prior to imaging, 100 nM trans-retinal was added to the medium.
Solutions: Recordings are performed in Brainphys™ imaging buffer with 3 mM potassium. […]
Optopatch Recordings: Five days after transduction, Optopatch imaging is performed on a custom, ultra-widefield fluorescence microscope at RT. Motor neurons are illuminated with red laser excitation (200 W/cm^2; 635 nm) to monitor changes in QuasAr fluorescence and blue LED excitation (0-127 mW/cm^2, 470 nm) to depolarize the cell membrane with CheRiff. […] Optopatch data are recorded using a Hamamatsu ORCA-Flash 4.0 sCMOS camera with a 1 kHz frame rate. […]
Data Analysis: Image segmentation analysis is performed using temporal Principle Component Analysis and spatial-temporal Independent Component Analysis to isolate individual neurons. A spike-finding algorithm is used to find action potentials, and data are analyzed for compound effects on mean firing rate, adaptation, rheobase and action potential waveform shape by comparing to vehicle controls (for detail, see C. A. Werley, et. al., Curr. Protoc. Pharmacol., 78, 11.20.1-11.20.24. (2017)). […]

Test [2] concerns motor neurons derived from ALS patient iPSC line with pathogenic mutation in TARDBP. Briefly: Optopatch excitability assay in motor neurons derived from ALS patient iPSC line (TARDBP mutation). Type of test: cell-based, human. The conditions noted are these: Homo sapiens, iPSC, TARDBP line, blue LED 5.1 mW/cm^2, mean, read-out: EC50, inhibition of excitability (action potential frequency).
Source text: as §1, §2, §3, §4
Solutions: Recordings are performed in Brainphys™ imaging buffer with 3 mM potassium. The gap junction blocker 2-aminoethoxydiphenyl borate (50 μM) is added to eliminate electrical coupling between cells, and NBQX (10 μM), gabazine (20 μM), and AP5 (25 μM) were used to block synaptic transmission.
Optopatch Recordings: Five days after transduction, Optopatch imaging is performed on a custom, ultra-widefield fluorescence microscope at RT. Motor neurons are illuminated with red laser excitation (200 W/cm^2; 635 nm) to monitor changes in QuasAr fluorescence and blue LED excitation (0-127 mW/cm^2, 470 nm) to depolarize the cell membrane with CheRiff. A custom blue light stimulus protocol is used consisting of: i) 2 sec of red illumination only to monitor spontaneous activity, ii) 5×500 msec steps of increasing blue light intensity and iii) 2×2 sec linearly increasing blue light ramps, each with a different maximum blue intensity. Optopatch data are recorded using a Hamamatsu ORCA-Flash 4.0 sCMOS camera with a 1 kHz frame rate. The field of view size is 4 mm×0.5 mm. Custom control software written in MATLAB is used to control illumination protocols and record all movies. To examine acute effects of Kv7.2/7.3 potentiators, neurons are incubated with test compound for 15 min prior to imaging.
Data Analysis: Image segmentation analysis is performed using temporal Principle Component Analysis and spatial-temporal Independent Component Analysis to isolate individual neurons. A spike-finding algorithm is used to find action potentials, and data are analyzed for compound effects on mean firing rate, adaptation, rheobase and action potential waveform shape by comparing to vehicle controls (for detail, see C. A. Werley, et. al., Curr. Protoc. Pharmacol., 78, 11.20.1-11.20.24. (2017)).
Subjected to the protocol described above, the primary effect of the Example 1 is on the action potential firing rate in response to low intensity blue light illumination.
Fitting a 4-parameter logistic equation to the data may be used to determine the potency (EC50) of the effect of Example 1 on action potential frequency. Results are shown in Table 1 for two separate differentiation efforts each for the lines derived from the patients carrying the TARDBP and C9orf72 mutations.

Each structure is given as a SMILES string. pEC50: −log10 of the molar value. Where two headings read alike, the source gives them in different places.

Turning to `CCOC(=O)Nc1ccc(NCc2ccc(F)cc2)nc1N` [Flupirtine, flupirtine, reference compound], the pEC50 in test [1] (Diff 1, blue LED 5.1 mW/cm^2, mean) was 5.78; in test [1] (Diff 2, blue LED 5.1 mW/cm^2, mean), 5.87; in test [2] (Diff 1), 5.94; in test [2] (Diff 2) it was 6.08.
